“And” between values parts separate entries of the source, which are not always exact repeats. Equal values may be shown once. Inconclusive results and toxic doses are left out. Cut-off read from the data, not from the text of the source: active = T/C of 150% or more; inactive = T/C below 125%.
Tested on: L1210 leukemia ip in BDF1 mice, survival T/C
Assay: NCI In Vivo Anticancer Drug Screen. Data for tumor model L1210 Leukemia (intraperitoneal) in B6D2F1 (BDF1) mice
Settings: endpoint: mean survival time, higher = longer survival
Method in brief: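 Each compound was tested against a transplantable tumor grown in mice. The endpoint was survival, with treated animals benchmarked against vehicle controls as a simple ratio.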

[1] = dose: 1.56 mg/kg/injection, schedule: Q04DX003 (ip), vehicle: saline
[2] = dose: 100.0 mg/kg/injection, schedule: Q01DX001 (ip), vehicle: other
[3] = dose: 200.0 mg/kg/injection, schedule: Q01DX001 (ip), vehicle: other
[4] = dose: 200.0 mg/kg/injection, schedule: Q01DX009 (ip), vehicle: Klucel (hydroxypropylcellulose) (HPC)

Measured: T/C

Cc1ccc([I+]c2ccc(C)cc2C)c(C)c1
inactive: dose: 0.25 mg/kg/injection, schedule: Q01DX015 (ip), vehicle: saline 96 % of control | dose: 0.5 mg/kg/injection, schedule: Q01DX015 (ip), vehicle: saline 96 % of control | dose: 1.0 mg/kg/injection, schedule: Q01DX015 (ip), vehicle: saline 97 % of control | dose: 1.56 mg/kg/injection, schedule: Q01DX009 (ip), vehicle: saline with Tween-80 112 % of control | [1] 95 % of control | dose: 2.0 mg/kg/injection, schedule: Q01DX015 (ip), vehicle: saline 97 % of control | dose: 3.12 mg/kg/injection, schedule: Q01DX009 (ip), vehicle: saline with Tween-80 119 % of control | dose: 3.12 mg/kg/injection, schedule: Q04DX003 (ip), vehicle: saline 91 % of control | dose: 6.25 mg/kg/injection, schedule: Q01DX009 (ip), vehicle: saline with Tween-80 110 % of control | dose: 6.25 mg/kg/injection, schedule: Q04DX003 (ip), vehicle: saline 95 % of control | dose: 12.5 mg/kg/injection, schedule: Q01DX001 (ip), vehicle: saline 94 % of control | dose: 25.0 mg/kg/injection, schedule: Q01DX001 (ip), vehicle: saline 100 % of control

Nc1ncnc2c1ncn2C(/C=N/Nc1ccccc1)OC(/C=N\Nc1ccccc1)CO (stereo not given)
inactive: [2] 106 % of control | [3] 108 % of control

O=C(Nc1cccc(F)c1)N(C1CCCCC1)C1CCCCC1
inactive: dose: 6.25 mg/kg/injection, schedule: Q01DX009 (ip), vehicle: gum acacia 96 % of control | dose: 12.5 mg/kg/injection, schedule: Q01DX009 (ip), vehicle: gum acacia 100 % of control | dose: 50.0 mg/kg/injection, schedule: Q01DX009 (ip), vehicle: gum acacia 89 % of control | dose: 400.0 mg/kg/injection, schedule: Q01DX009 (ip), vehicle: gum acacia 91 % of control

Cc1ccc(CN(CC(=O)O)S(C)(=O)=O)cc1
inactive: dose: 100.0 mg/kg/injection, schedule: Q01DX009 (ip), vehicle: other 105 % of control | dose: 100.0 mg/kg/injection, schedule: Q04DX003 (ip), vehicle: other 95 % of control | dose: 200.0 mg/kg/injection, schedule: Q01DX009 (ip), vehicle: other 98 % of control | dose: 200.0 mg/kg/injection, schedule: Q04DX003 (ip), vehicle: other 97 % of control | dose: 400.0 mg/kg/injection, schedule: Q01DX009 (ip), vehicle: other 110 % of control | dose: 400.0 mg/kg/injection, schedule: Q04DX003 (ip), vehicle: other 101 % of control

Cc1ccc(C(=O)CCC(=O)O)c(C)c1
inactive: dose: 100.0 mg/kg/injection, schedule: Q04DX003 (ip), vehicle: saline with Tween-80 100 % of control | dose: 200.0 mg/kg/injection, schedule: Q04DX003 (ip), vehicle: saline with Tween-80 98 % of control | dose: 400.0 mg/kg/injection, schedule: Q04DX003 (ip), vehicle: saline with Tween-80 98 % of control

COc1ccc(Nc2ccnc3cc(Cl)ccc23)cc1CN(CCCl)CCCl
inactive: dose: 0.78 mg/kg/injection, schedule: Q01DX009 (ip), vehicle: saline 115 % of control | dose: 1.1 mg/kg/injection, schedule: Q01DX Z (ip), vehicle: methylcellulose (MC) 110 % of control | dose: 1.25 mg/kg/injection, schedule: Q01DX009 (ip), vehicle: Klucel (hydroxypropylcellulose) (HPC) 110 % of control | dose: 1.56 mg/kg/injection, schedule: Q01DX009 (ip), vehicle: saline 109 % of control | [1] 108 % of control | dose: 1.6 mg/kg/injection, schedule: Q01DX Z (ip), vehicle: methylcellulose (MC) 106 % of control and 118 % of control | dose: 2.4 mg/kg/injection, schedule: Q01DX Z (ip), vehicle: methylcellulose (MC) 117 % of control and 124 % of control | dose: 2.5 mg/kg/injection, schedule: Q01DX001 (ip), vehicle: Klucel (hydroxypropylcellulose) (HPC) 108 % of control | dose: 2.5 mg/kg/injection, schedule: Q01DX009 (ip), vehicle: Klucel (hydroxypropylcellulose) (HPC) 112 % of control | dose: 2.5 mg/kg/injection, schedule: Q04DX003 (ip), vehicle: Klucel (hydroxypropylcellulose) (HPC) 105 % of control | dose: 3.13 mg/kg/injection, schedule: Q01DX009 (ip), vehicle: saline 86 % of control | dose: 3.13 mg/kg/injection, schedule: Q04DX003 (ip), vehicle: saline 106 % of control | dose: 3.6 mg/kg/injection, schedule: Q01DX Z (ip), vehicle: methylcellulose (MC) 110 % of control and 112 % of control | dose: 5.0 mg/kg/injection, schedule: Q01DX001 (ip), vehicle: Klucel (hydroxypropylcellulose) (HPC) 107 % of control | dose: 5.0 mg/kg/injection, schedule: Q04DX003 (ip), vehicle: Klucel (hydroxypropylcellulose) (HPC) 106 % of control | dose: 10.0 mg/kg/injection, schedule: Q01DX001 (ip), vehicle: Klucel (hydroxypropylcellulose) (HPC) 103 % of control | dose: 10.0 mg/kg/injection, schedule: Q04DX003 (ip), vehicle: Klucel (hydroxypropylcellulose) (HPC) 105 % of control | dose: 50.0 mg/kg/injection, schedule: Q01DX001 (ip), vehicle: carboxymethylcellulose (CMC) 106 % of control

CC(C)NNC(=O)C(C)N (stereo not given)
inactive: dose: 12.5 mg/kg/injection, schedule: Q01DX009 (ip), vehicle: saline 87 % of control | dose: 25.0 mg/kg/injection, schedule: Q01DX009 (ip), vehicle: saline 90 % of control | dose: 25.0 mg/kg/injection, schedule: Q04DX003 (ip), vehicle: saline 89 % of control | dose: 50.0 mg/kg/injection, schedule: Q01DX009 (ip), vehicle: saline 92 % of control | dose: 50.0 mg/kg/injection, schedule: Q04DX003 (ip), vehicle: saline 103 % of control | dose: 100.0 mg/kg/injection, schedule: Q01DX009 (ip), vehicle: saline 92 % of control | dose: 100.0 mg/kg/injection, schedule: Q04DX003 (ip), vehicle: saline 89 % of control | dose: 200.0 mg/kg/injection, schedule: Q01DX009 (ip), vehicle: saline 93 % of control | dose: 200.0 mg/kg/injection, schedule: Q04DX003 (ip), vehicle: saline 86 % of control

O=C(Nc1ccccc1)c1ccccc1C(O)(c1ccccc1)c1ccc(Cl)cc1 (stereo not given)
inactive: dose: 100.0 mg/kg/injection, schedule: Q01DX009 (ip), vehicle: saline with Tween-80 92 % of control | dose: 200.0 mg/kg/injection, schedule: Q01DX009 (ip), vehicle: saline with Tween-80 90 % of control | dose: 400.0 mg/kg/injection, schedule: Q01DX009 (ip), vehicle: saline with Tween-80 93 % of control

CC(Cl)CN(CC(C)Cl)C(=O)Oc1ccc([N+](=O)[O-])cc1 (stereo not given)
inactive: dose: 100.0 mg/kg/injection, schedule: Q01DX009 (ip), vehicle: Klucel (hydroxypropylcellulose) (HPC) 98 % of control | [4] 94 % of control | dose: 400.0 mg/kg/injection, schedule: Q01DX009 (ip), vehicle: Klucel (hydroxypropylcellulose) (HPC) 98 % of control

NS(=O)(=O)c1cc(Br)c2c(c1)S(=O)(=O)NCN2
inactive: dose: 65.0 mg/kg/injection, schedule: Q01DX009 (ip), vehicle: Klucel (hydroxypropylcellulose) (HPC) 102 % of control | dose: 75.0 mg/kg/injection, schedule: Q01DX001 (ip), vehicle: saline 106 % of control | dose: 135.0 mg/kg/injection, schedule: Q01DX009 (ip), vehicle: Klucel (hydroxypropylcellulose) (HPC) 88 % of control | dose: 150.0 mg/kg/injection, schedule: Q01DX001 (ip), vehicle: saline 96 % of control | [4] 100 % of control | dose: 300.0 mg/kg/injection, schedule: Q01DX009 (ip), vehicle: Klucel (hydroxypropylcellulose) (HPC) 97 % of control | dose: 600.0 mg/kg/injection, schedule: Q01DX009 (ip), vehicle: Klucel (hydroxypropylcellulose) (HPC) 88 % of control

CC1(CO)C2CCC(O)C1C2 (stereo not given)
inactive: dose: 75.0 mg/kg/injection, schedule: Q01DX009 (ip), vehicle: saline 103 % of control | dose: 75.0 mg/kg/injection, schedule: Q04DX003 (ip), vehicle: saline 94 % of control | dose: 150.0 mg/kg/injection, schedule: Q01DX009 (ip), vehicle: saline 97 % of control | dose: 150.0 mg/kg/injection, schedule: Q04DX003 (ip), vehicle: saline 95 % of control | dose: 300.0 mg/kg/injection, schedule: Q01DX009 (ip), vehicle: saline 100 % of control | dose: 300.0 mg/kg/injection, schedule: Q04DX003 (ip), vehicle: saline 102 % of control

COC(=O)C(Nc1ccc([N+](=O)[O-])cc1[N+](=O)[O-])C(C)OS(=O)(=O)c1ccc(C)cc1 (stereo not given)
inactive: dose: 100.0 mg/kg/injection, schedule: Q01DX001 (ip), vehicle: saline 95 % of control | dose: 200.0 mg/kg/injection, schedule: Q01DX001 (ip), vehicle: saline 93 % of control | dose: 400.0 mg/kg/injection, schedule: Q01DX001 (ip), vehicle: saline 92 % of control

COc1c(OC)c(OC)c2c(=O)cc(-c3ccc4c(c3)OCO4)oc2c1OC
inactive: dose: 50.0 mg/kg/injection, schedule: Q01DX001 (ip), vehicle: other 103 % of control | [2] 100 % of control | [3] 100 % of control | dose: 400.0 mg/kg/injection, schedule: Q01DX001 (ip), vehicle: other 91 % of control

Source: PubChem BioAssay AID248 (DTP/NCI, 2004)
